Measured values reported in patent US20240124450A1, “Novel SIK Inhibitors” (Pfizer Inc., priority 2022, published 2024).
Like-named read-outs stand apart in the source and are kept apart here.

Legend:
[1] = target: SIK1 (Homo sapiens (Human), UniProt P57059); assay: Pan SIK MS IC50 enzyme assay (SIK1); type: biochemical; conditions: 1 mM ATP, substrate peptide AQT0868, LCMS/MS detection
Description: (§1) Enzyme Assay: Pan SIK MS IC50 Assay
(§2) Salt Induced Kinase (SIK) activity is determined by measuring the effect of a test agent on the activity of the appropriate SIK enzyme to phosphorylate its corresponding substrate. […] The phosphorylated substrate product resulting from the kinase reaction is detected by LCMS/MS, and the area under the peak curve correlates with kinase activity. […] The plates are spun at 1000 rpm for 30 seconds to ensure compounds are at the bottom of the well before removing foil covers. 0.15 μL HPE (assay std) and ZPE (DMSO) are added to the ARP using an HP D300 dispenser. Plates are spun again at 1000 rpm for 30 seconds. […] Plates are spun at 1000 rpm for 30 seconds. Plates are then sealed and incubated at RT for 10 minutes. Following incubation, 5 μL of 5× peptide reagent is added with a Multidrop Combi and designated small volume cassette to initiate the kinase reaction. Plates are spun at 1000 rpm for 30 seconds. Plates are then sealed and incubated at RT for 90 minutes. The assay is stopped by the addition of 5 μl of 120 mM EDTA added with a Multidrop Combi and designated small volume cassette (20 mM final concentration). Plates are spun at 1000 rpm for 30 seconds. 10 μl of the final reaction mix from each of the three individual enzyme plates are transferred by a Platemate Plus to the same corresponding 96 well deepwell plate containing 70 μl Water/Methanol (85/15%) for multiplex MS detection ([…]). Using Activity Base (ABase), an idbs data analysis software tool, the reported area ratio unit data is associated to compound, batch and dose information, the data is evaluated for quality, and the percent inhibition of each well is calculated. The data from each Max effect/HPE and Min effect/ZPE control wells are assessed, and outliers are excluded from all further calculations. The mean and standard deviation of the HPE and ZPE are then calculated for each plate, along with the Z Prime. The compound data is converted into % effect, using the average ZPE and HPE controls as 0% and 100% activity, respectively.

[2] = target: SIK2 (Homo sapiens (Human), UniProt Q9H0K1); assay: Pan SIK MS IC50 enzyme assay (SIK2); type: biochemical; conditions: 1 mM ATP, substrate peptide AQT0252, LCMS/MS detection
Description: as §1, §2

[3] = target: SIK3 (Homo sapiens (Human), UniProt Q9Y2K2); assay: Pan SIK MS IC50 enzyme assay (SIK3); type: biochemical; conditions: 1 mM ATP, substrate peptide AQT0508, LCMS/MS detection
Description: as §1, §2

[4] = system: TNFα release from human monocyte derived macrophages stimulated with LPS; assay: SIK macrophage cytokine assay, inhibition of TNFα release; type: cell-based; conditions: 1 ng/mL LPS, 4 hours, HTRF, read-out: TNFa IC50
Description: (§3) Cytokine Assays: SIK Macrophage Assay Cytokine activity is determined by measuring the effect of a test agent on the inhibitory release of the cytokine TNFα and the increasing release of the cytokine IL10 from human monocyte derived macrophages (human macrophages) stimulated with lipopolysaccharide (LPS). At the time of assay, human macrophages (CGPS group Pfizer Groton, CT) are removed from cryopreservation, thawed quickly at 37° C., diluted in thaw medium (OptiMEM—Gibco medium, 10% heat inactivated fetal bovine serum (HIFBS)), and then centrifuged at 200×g for 10 minutes. […] After ˜60 minutes in an incubator at 37° C. in a humidified environment in 5% carbon dioxide the cells are stimulated by the addition of 5 μL of LPS (10 ng/mL; Sigma) and the assay plate is returned to an incubator at 37° C. in a humidified environment in 5% carbon dioxide for 4 hours. […] The final concentration of DMSO in the assay is approximately 0.1%. After 4 hours, the assay plate is removed from the incubator and centrifuged at 1500 rpm for 10 minutes. A portion of the resulting cell supernatant is then used to determine the amount of IL-10 and TNFα in each well. Cytokine measurements are made using human IL-10 and TNFα HTRF assay kits (Perkin Elmer) following the manufacturer's assay protocol.

[5] = system: IL10 release from human monocyte derived macrophages stimulated with LPS; assay: SIK macrophage cytokine assay, increase of IL10 release; type: cell-based; conditions: 1 ng/mL LPS, 4 hours, HTRF
Description: as §3

SIK2, sequence (Q9H0K1 whole entry, species assumed): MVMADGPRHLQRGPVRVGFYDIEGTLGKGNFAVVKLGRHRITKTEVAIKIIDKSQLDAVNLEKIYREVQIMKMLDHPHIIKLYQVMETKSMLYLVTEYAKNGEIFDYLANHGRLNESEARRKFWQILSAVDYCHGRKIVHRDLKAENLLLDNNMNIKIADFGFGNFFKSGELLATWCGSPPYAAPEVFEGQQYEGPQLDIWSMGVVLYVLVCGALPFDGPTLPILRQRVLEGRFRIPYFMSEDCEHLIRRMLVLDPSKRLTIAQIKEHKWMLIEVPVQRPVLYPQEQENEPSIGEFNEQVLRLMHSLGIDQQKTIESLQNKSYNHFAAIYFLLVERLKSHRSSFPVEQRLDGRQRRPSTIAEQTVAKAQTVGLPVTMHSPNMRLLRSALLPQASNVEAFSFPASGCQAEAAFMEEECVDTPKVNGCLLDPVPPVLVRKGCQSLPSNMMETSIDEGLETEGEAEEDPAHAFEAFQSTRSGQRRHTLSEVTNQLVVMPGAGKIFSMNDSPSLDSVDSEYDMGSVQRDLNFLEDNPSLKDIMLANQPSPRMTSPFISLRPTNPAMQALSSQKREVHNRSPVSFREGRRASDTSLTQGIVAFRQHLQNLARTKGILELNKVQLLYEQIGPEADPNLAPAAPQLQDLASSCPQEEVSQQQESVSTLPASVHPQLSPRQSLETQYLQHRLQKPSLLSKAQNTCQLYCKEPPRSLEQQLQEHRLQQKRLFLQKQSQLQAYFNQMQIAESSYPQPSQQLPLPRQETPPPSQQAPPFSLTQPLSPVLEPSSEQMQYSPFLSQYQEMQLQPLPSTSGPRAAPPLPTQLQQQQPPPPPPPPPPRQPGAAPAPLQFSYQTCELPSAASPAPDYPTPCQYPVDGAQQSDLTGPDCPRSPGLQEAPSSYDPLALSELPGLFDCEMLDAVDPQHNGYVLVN
SIK1, sequence (P57059 whole entry, species assumed): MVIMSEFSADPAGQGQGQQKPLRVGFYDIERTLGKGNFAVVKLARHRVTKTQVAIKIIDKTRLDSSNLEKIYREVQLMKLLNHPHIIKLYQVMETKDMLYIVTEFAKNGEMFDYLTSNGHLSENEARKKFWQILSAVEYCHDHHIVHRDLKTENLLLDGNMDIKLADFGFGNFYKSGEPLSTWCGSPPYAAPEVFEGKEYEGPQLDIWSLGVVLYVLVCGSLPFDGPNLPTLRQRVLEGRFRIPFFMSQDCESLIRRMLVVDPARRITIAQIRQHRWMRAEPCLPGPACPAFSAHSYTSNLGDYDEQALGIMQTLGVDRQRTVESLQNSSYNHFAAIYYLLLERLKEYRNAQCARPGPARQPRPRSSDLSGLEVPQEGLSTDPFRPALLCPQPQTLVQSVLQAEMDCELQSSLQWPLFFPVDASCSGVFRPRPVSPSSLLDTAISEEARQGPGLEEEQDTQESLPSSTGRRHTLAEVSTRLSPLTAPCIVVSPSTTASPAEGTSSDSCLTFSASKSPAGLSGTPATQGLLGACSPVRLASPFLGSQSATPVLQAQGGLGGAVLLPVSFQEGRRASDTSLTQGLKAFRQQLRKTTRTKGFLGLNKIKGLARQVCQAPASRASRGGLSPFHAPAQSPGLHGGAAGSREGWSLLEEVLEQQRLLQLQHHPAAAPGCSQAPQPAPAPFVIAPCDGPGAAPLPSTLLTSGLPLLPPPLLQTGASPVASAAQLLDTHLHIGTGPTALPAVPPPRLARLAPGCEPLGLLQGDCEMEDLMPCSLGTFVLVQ
SIK3, sequence (Q9Y2K2 whole entry, species assumed): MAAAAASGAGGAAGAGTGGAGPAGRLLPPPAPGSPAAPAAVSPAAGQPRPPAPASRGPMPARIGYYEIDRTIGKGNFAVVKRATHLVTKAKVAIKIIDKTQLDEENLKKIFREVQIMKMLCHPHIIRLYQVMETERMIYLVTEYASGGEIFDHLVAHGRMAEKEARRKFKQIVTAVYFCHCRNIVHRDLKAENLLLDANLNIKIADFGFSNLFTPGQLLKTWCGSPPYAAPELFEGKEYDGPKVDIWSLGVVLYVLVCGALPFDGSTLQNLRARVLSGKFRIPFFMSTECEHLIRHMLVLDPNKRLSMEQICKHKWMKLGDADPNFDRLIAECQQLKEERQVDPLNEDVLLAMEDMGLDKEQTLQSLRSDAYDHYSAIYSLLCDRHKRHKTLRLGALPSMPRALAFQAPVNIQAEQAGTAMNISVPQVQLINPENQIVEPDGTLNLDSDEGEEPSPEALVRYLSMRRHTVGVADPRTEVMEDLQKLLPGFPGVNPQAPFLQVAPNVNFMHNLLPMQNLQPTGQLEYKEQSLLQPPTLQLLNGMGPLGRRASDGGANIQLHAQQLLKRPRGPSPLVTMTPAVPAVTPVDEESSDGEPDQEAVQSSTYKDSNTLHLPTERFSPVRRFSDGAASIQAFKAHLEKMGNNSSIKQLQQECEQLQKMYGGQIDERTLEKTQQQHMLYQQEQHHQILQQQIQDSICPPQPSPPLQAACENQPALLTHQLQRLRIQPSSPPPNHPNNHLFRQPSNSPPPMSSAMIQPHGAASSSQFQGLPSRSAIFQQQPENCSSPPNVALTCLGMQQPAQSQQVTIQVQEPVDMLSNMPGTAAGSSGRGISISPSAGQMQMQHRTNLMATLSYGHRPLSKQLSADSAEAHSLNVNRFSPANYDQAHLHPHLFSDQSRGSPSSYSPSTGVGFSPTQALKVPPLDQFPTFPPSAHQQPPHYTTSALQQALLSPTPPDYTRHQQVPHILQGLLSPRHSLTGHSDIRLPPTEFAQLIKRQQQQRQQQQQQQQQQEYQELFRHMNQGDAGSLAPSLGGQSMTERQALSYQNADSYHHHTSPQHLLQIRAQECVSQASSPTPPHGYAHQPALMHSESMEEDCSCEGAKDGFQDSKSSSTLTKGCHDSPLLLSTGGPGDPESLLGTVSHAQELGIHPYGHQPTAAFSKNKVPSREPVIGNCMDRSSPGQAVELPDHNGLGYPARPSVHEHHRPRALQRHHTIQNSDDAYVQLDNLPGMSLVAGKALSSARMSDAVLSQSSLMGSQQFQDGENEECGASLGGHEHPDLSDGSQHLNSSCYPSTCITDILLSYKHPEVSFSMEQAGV

| IC50 [1] [nM] | IC50 [2] [nM] | IC50 [3] [nM] | IC50 ([4]; Macrophage) [nM] | EC50 ([5]; Macrophage) [nM] | IC50 [4] [nM] | EC50 [5] [nM] | Structure (SMILES) |
| --- | --- | --- | --- | --- | --- | --- | --- |
| 3.3 | 2.5 | 5.1 | 25.8 | 142 |  |  | CSc1cc(-c2cnc3cccc(C#N)n23)cc(OCC2(N)CCSC2)c1C#N (racemic) [Example 27, (R)-3-(3-((3-aminotetrahydrothiophen-3-yl)methoxy)-4-cyano-5-(methylthio)phenyl)imidazo[1,2-a]pyridine-5-carbonitrile and (6)-3-(3-(((3-aminotetrahydrothiophen-3-yl)methoxy)-4-cyano-5-(methylthio)phenyl)imidazo[1,2-a]pyridine-5-carbonitrile] |
| 1.1 | 1 | 3.3 | 11.1 | 23 |  |  | CCC1CCCC1(N)COc1cc(-c2cnc3cccc(OC)n23)cc(SC)c1C#N (stereo not shown) [Example 8, 2-((1-Amino-2-ethylcyclopentyl)methoxy)-4-(5-methoxyimidazo[1,2-a]pyridin-3-yl)-6-(methylthio)benzonitrile] |
| 10.9 | 9.9 | 23.4 |  |  | 258 | 338 | CSc1cc(-c2cnc3ccccn23)cc(OC[C@@]2(N)CCC[C@H](C(F)(F)F)C2)c1C#N.CSc1cc(-c2cnc3ccccn23)cc(OC[C@]2(N)CCC[C@@H](C(F)(F)F)C2)c1C#N (mixture of isomers) [Example 33B, 2-(((1R,3S)-1-Amino-3-(trifluoromethyl)cyclohexyl)methoxy)-4-(imidazo[1,2-a]pyridin-3-yl)-6-(methylthio)benzonitrile and 2-(((1S,3R)-1-amino-3-(trifluoromethyl)cyclohexyl)methoxy)-4-(imidazo[1,2-a]pyridin-3-yl)-6-(methylthio)benzonitrile] |
| 5.1 | 1.1 | 2.1 | 12 | 178 |  |  | COc1cc(C#N)n2c(-c3cc(OC)c(C#N)c(OCC4(N)CCCCC4)c3)cnc2c1 [Example 52, 3-(3-((1-Aminocyclohexyl)methoxy)-4-cyano-5-methoxyphenyl)-7-methoxyimidazo[1,2-a]pyridine-5-carbonitrile] |
| 3 | 0.9 | 2.2 | 10.7 | 85 |  |  | CSc1cc(-c2cnc3cc(Cl)cc(C#N)n23)cc(OCC2(N)CCCC2)c1C#N [Example 42, 3-(3-((1-Aminocyclopentyl)methoxy)-4-cyano-5-(methylthio)phenyl)-7-chloroimidazo[1,2-a]pyridine-5-carbonitrile] |
